Publication PMC5573368, “Elucidation of Dietary Polyphenolics as Potential Inhibitor of Microtubule Affinity Regulating Kinase 4: In silico and In vitro Studies” (Scientific Reports, 2017)
Where two headings read alike, the source gives them in different places.

Legend:
[1] = molecular target: T1, MARK4 (Homo sapiens, UniProt Q96L34); assay: Fluorescence quenching binding study (modified Stern-Volmer); conditions: excitation 280 nm, 25 °C
T1 construct: inferred from Ni-NTA purification; made in house
T1 sequence (Q96L34 59-368): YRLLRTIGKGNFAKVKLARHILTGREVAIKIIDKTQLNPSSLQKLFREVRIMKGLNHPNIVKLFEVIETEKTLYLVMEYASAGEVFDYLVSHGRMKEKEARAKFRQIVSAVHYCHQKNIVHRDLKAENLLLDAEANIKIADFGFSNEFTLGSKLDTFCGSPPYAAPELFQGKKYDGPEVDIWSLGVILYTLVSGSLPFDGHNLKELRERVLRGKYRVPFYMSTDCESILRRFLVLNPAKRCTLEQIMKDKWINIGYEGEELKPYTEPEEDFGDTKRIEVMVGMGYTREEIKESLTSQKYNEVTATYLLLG

[2] = test system: phosphorylation of tau in SH-SY5Y cells; assay: Tau-phosphorylation assay by flow cytometry (anti-tau pSer262); assay type: cell-based, human; conditions: 80–120 μM, 24 hrs
[3] = molecular target: T1, MARK4; assay: Isothermal titration calorimetry; assay type: binding; conditions: ITC, two-site model; for K a1 (association constant): site 1, 25 °C; for K a2 (association constant): site 2, 25 °C
[4] = test system: HeLa cells; assay: MTT cell proliferation assay, HeLa; assay type: cell-based; conditions: Homo sapiens, 48 h, read-out: IC50 (cell viability)
Description: (§1) Briefly, breast cancer cells (MCF-7), human cervical cancer cells (HeLa), human neuroblastoma (SH-SY5Y) cells and human embryonic kidney cells (HEK293T) were seeded in a 96 well plates at a concentration of 10 × 10^3 viable cells per well. […] After 48 h of treatment, both medium and inhibitor were removed from the cells, washed twice with phosphate buffer saline (PBS) and then 20 µl MTT (from 5 mg/ml stock) and 100 µl DMEM was loaded to each well followed by 4–5 hours incubation in a CO2 incubator at 37 °C. Finally, the residual MTT medium was removed carefully and dissolves the crystals of formazan by adding 100 µl DMSO in each well. The micro-titer plates were then agitated for 15–20 minutes on an orbital plate shaker and then absorbance at 570 nm was determined on a titerplate reader (BioRad). The absorbance value so obtained was converted into percentage viability in comparison to the control cells (untreated cells/cells treated with media only). For cell proliferation studies doxorubicin has been taken as positive control.

[5] = test system: HEK293 cells; assay: MTT cell proliferation assay, HEK293; assay type: cell-based, human; conditions: 48 h, at a dose even higher than 200 μM
Description: as §1

[6] = molecular target: T1, MARK4; assay: ATPase inhibition assay ([γ-32P]ATP hydrolysis, TLC); assay type: biochemical
[7] = test system: SH-SY5Y cells; assay: MTT cell proliferation assay, SH-SY5Y; assay type: cell-based, human; conditions: 48 h, at a dose even higher than 200 μM
Description: as §1

[8] = test system: MCF-7 cells; assay: MTT cell proliferation assay, MCF-7; assay type: cell-based; conditions: Homo sapiens, MCF7; MCF-7, MTT, 48 h; read-out: IC50 (cell viability)
Description: as §1

[9] = test system: MCF-7 cells; assay: Intracellular ROS by DCFDA staining; assay type: cell-based, human; conditions: MCF-7, 20–120 μM, 12 h
Description: (§2) Followed by incubation, to measure intracellular ROS, 2-Dichlorofluorescein diacetate (DCFDA) staining was performed. […] Further, cytoplasmic superoxide level was measured by dihydroethidium staining (Fig. 7C). […] In fluorescence imaging, substantial decreases in the extent of DHE fluorescence as compared to control (untreated cells) have been observed (Fig. 7C ). […] Total Reactive oxygen species determination (ROS) content inside the cells was determined using the DCFDA reagent. This assay measures various ROS such as H2O2 and hydroxyl radicals. […] After that cells were washed twice with PBS, pH7.4, trypsinized and collected by centrifugation. Finally cells were resuspended in 300 μl of PBS and fluorescence was measured at Jasco spectroflourimeter (FP-6200) using a 5 mm quartz cuvette. The excitation and emission filters were set at 485/500–550 nm respectively. Similarly with some modifications, cytosolic superoxide levels were determined using dihydroxyethidium staining. Briefly, cells were grown on coverslips to 70–80% confluency and replaced the complete media with reduced serum media for overnight. […] Following DHE staining, DAPI is used to satin nuclei of the cells as described earlier. Fluorescence images were taken on Nikon-EclipseTS100 microscope.

[10] = test system: MCF-7 cells; assay: Annexin-V apoptosis assay by flow cytometry; assay type: cell-based, human; conditions: MCF-7, IC50 concentration (rutin 80 μM, vanillin 120 μM), 48 h
Excerpt: Apoptosis plays a central role in the progress and pathophysiology of a wide variety of diseases. However, due to impairment of apoptotic signal transmission most of the cancerous cells evade apoptosis. […] Annexin- V staining was used to study the apoptosis. […] Cells were washed twice with phosphate-buffered saline (PBS) and stained with FITC labeled Annexin- V. Annexin- Vpositive cells were examined by flow cytometry. […] Annexin-V staining was used to determine the cell apoptosis, [73]. […] After treatment, nearly 2 × 10^6 cells were trypsinized and washed two times with 5 ml of PBS by centrifuging at 1800 rpm for 4 min. FITC-Annexin-V staining was done by using FITC-Annexin-V kit according to the manufacturer’s instructions (BD-Biosciences, USA). 10,000 events for each sample were analyzed by flow cytometry BD FACS Canto and data analysis was performed with help of flowJo software.

[11] = test system: MCF-7 cells; assay: Cytoplasmic superoxide by DHE staining; assay type: cell-based, human; conditions: MCF-7, rutin 80 μM, vanillin 120 μM
Description: as §2

[12] = site 1, read-out: K D1 (dissociation constant)
[13] = site 2, read-out: K D2 (dissociation constant)

| Binding affinity (K a) [1] [M⁻¹] | IC50 [8] [µM] | Compound | Phosphorylation of tau [2] | K a1 (association constant) [3] | Kd [3, 12] [µM] | K a2 (association constant) [3] | Kd [3, 13] [µM] | IC50 [4] [µM] | Effect on cell viability [5] | inhibition at 40 µM [6] [%] | Effect on cell viability [7] | DCF fluorescence (intracellular ROS) [9] | Increase in apoptosis as compared to the control cells [10] [%] | Cytoplasmic superoxide levels (DHE fluorescence) [11] | also measured |
| --- | --- | --- | --- | --- | --- | --- | --- | --- | --- | --- | --- | --- | --- | --- | --- |
| 13000 |  | COc1cc(/C=C/C(=O)O)ccc1O [Ferulic acid] |  |  |  |  |  |  |  |  |  |  |  |  |  |
| 7.6 |  | O=C(O)c1cc(O)c(O)c(O)c1 [Gallic acid] |  |  |  |  |  |  |  |  |  |  |  |  |  |
| 16500 | 120 | COc1cc(C=O)ccc1O [Vanillin] | inhibit the phosphorylation of tau | K a1 = 8.43 × 10^3 ± 0.5 × 10^3 M^−1 | 119 | K a2 = 1.45 × 10^5 ± 0.29 × 10^5 M^−1 | 6.9 | > 200 | did not inhibit the viability | ~50 | did not inhibit the viability | dose-dependent decrease in DCF fluorescence | 9 | decreases cytoplasmic superoxide levels |  |
|  | 0.12 | COc1cccc2c1C(=O)c1c(O)c3c(c(O)c1C2=O)C[C@@](O)(C(=O)CO)C[C@@H]3O[C@H]1C[C@H](N)[C@H](O)[C@H](C)O1 [doxorubicin, reference compound] |  |  |  |  |  |  |  |  |  |  |  |  |  |

| Compound | Binding affinity (K a) [1] [M⁻¹] | IC50 [8] [µM] | Phosphorylation of tau [2] | K a1 (association constant) [3] | Kd [3, 12] [µM] | K a2 (association constant) [3] | Kd [3, 13] [µM] | IC50 [4] [µM] | Effect on cell viability [5] | inhibition at 40 µM [6] [%] | Effect on cell viability [7] | DCF fluorescence (intracellular ROS) [9] | Increase in apoptosis as compared to the control cells [10] [%] | Cytoplasmic superoxide levels (DHE fluorescence) [11] | also measured |
| --- | --- | --- | --- | --- | --- | --- | --- | --- | --- | --- | --- | --- | --- | --- | --- |
| COc1ccc([C@@H]2CC(=O)c3c(O)cc(O[C@@H]4O[C@H](CO[C@@H]5O[C@@H](C)[C@H](O)[C@@H](O)[C@H]5O)[C@@H](O)[C@H](O)[C@H]4O)cc3O2)cc1O [Hesperidin] | 112 |  |  |  |  |  |  |  |  |  |  |  |  |  |  |
| C[C@@H]1O[C@@H](OC[C@H]2O[C@@H](Oc3c(-c4ccc(O)c(O)c4)oc4cc(O)cc(O)c4c3=O)[C@H](O)[C@@H](O)[C@@H]2O)[C@H](O)[C@H](O)[C@H]1O [Rutin] | 287000 | 80 | inhibit the phosphorylation of tau | K a1 = 2.04 × 10^5 ± 0.15 × 10^5 M^−1 | 4.9 | K a2 = 1.72 × 10^6 ± 0.31 × 10^6 M^−1 | 0.581 | > 200 | did not inhibit the viability | ~50 | did not inhibit the viability | dose-dependent decrease in DCF fluorescence | 12 | decreases cytoplasmic superoxide levels | ΔH 1 (enthalpy change) ([3]; site 1): ΔH 1 = −4.61 × 10^6 cal/mol; ΔS 1 ([3]; site 1): ΔS 1 = −1.52 × 10^4 cal/mol/deg; ΔH 2 (enthalpy change) ([3]; site 2): ΔH 2 = −1.0 × 10^4 cal/mol; ΔS 2 ([3]; site 2): ΔS 2 = −4.74 cal/mol/deg; ATPase enzyme activity in initial screening ([6]; initial screening, compound 30 µM (Fig. S5)): significant decrease in the enzyme activity |
